Where two headings read alike, the source gives them in different places. Each block holds one compound with its values, some of them ahead of it.
Legend:
SMS1 = molecular target: T1, SMS1 (Homo sapiens, UniProt Q86VZ5); experiment: SMS assay, cell lysate with fluorescent substrate C6-NBD-Cer (SMS1); assay type: biochemical
T1 construct: expressed in transfected cells; host or cells: ZS/SMS1 cells (sonicated lysate)
T1 sequence (Q86VZ5 1-413): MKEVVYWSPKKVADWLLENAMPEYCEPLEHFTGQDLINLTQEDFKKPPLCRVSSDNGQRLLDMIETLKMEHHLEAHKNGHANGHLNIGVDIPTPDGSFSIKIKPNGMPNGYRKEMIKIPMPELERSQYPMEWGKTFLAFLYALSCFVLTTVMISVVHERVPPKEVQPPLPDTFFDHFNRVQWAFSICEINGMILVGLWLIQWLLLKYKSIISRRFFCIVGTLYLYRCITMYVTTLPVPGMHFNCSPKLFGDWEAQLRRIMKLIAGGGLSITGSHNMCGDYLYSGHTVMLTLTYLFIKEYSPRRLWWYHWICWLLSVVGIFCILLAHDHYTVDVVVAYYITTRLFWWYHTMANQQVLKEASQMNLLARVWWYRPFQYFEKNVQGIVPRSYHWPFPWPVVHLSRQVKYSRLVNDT
Method: (§1) The ability of DCA and its derivatives to inhibit the SMS isozymes SMS1 and SMS2 was evaluated using a cell lysate assay and the fluorescent substrate C6-NBD (4-nitrobenzo-2-oxa-1,3-diazole)-Cer. […] Thus, the carboxylic acid group of DCAs are essential moieties for their inhibition of SMSs. However, the SMS has not been succeeded in its crystallization. Therefore, a direct comparison with the previously isolated SMS inhibitor ginkgolic acid has been examined. […] Further, a previous report concerning the mode of action for Aβ aggregation inhibition for small molecules gave the insight that the crucial role of a hydrophobic-side hydrocarbon chain and an aromatic ring as well as its two hydrophilic functions causes significant interaction with the amyloid.
(§2) ZS/SMS1 and ZS/SMS2 cells (protein concentration 0.1 µg/µL) were diluted in 20 mM Tris-buffer (pH 7.5) and sonicated. A 1 µL aliquot of each compound at the desired concentration was added to 100 µL aliquots of the cell lysates and the solutions were incubated at 37 °C for 30 min. A 1 µL aliquot of C6-NBD-ceramide was added to each solution and the solutions were incubated for 3 h at 37 °C. The reactions were stopped by addition of 400 µL of MeOH/CHCl3 [1/2 (v/v)], and the mixtures were shaken and centrifuged at 1500 rpm for 5 min. The formation of C6-NBD-sphingomyelin was quantified by HPLC determination of its peak area. Inhibitory activity was quantified by a reverse-phase HPLC assay using a JACSO HPLC system, equipped with a PU-2089 Plus and FP-2020 Plus set at λex = 470 nm and λem = 530 nm. A 50 × 4.6 YMC-Pack Diol-120-NP column (5-µm particle size) was used with the mobile phase (IPA/hexane/water) at a flow rate of 1.0 mL/min
(§3) Figure 1 Inhibition of SMS1 and SMS2 activities by (a) DCA (1), (b) derivative (4), (c) derivative (6) and (d) derivative (7). IC50 values were measured using a cell lysate assay. SMS-expressing cell lysates and compounds were incubated for 3 h at 37 °C, and the extracted fluorescent lipids were directly analyzed by HPLC. Each point represents the mean ± SD of triplicate assays.

SMS2 = molecular target: T2, SMS2 (Homo sapiens, UniProt Q8NHU3); experiment: SMS assay, cell lysate with fluorescent substrate C6-NBD-Cer (SMS2); assay type: biochemical
T2 construct: expressed in transfected cells; host or cells: ZS/SMS2 cells (sonicated lysate)
T2 sequence (Q8NHU3 1-365): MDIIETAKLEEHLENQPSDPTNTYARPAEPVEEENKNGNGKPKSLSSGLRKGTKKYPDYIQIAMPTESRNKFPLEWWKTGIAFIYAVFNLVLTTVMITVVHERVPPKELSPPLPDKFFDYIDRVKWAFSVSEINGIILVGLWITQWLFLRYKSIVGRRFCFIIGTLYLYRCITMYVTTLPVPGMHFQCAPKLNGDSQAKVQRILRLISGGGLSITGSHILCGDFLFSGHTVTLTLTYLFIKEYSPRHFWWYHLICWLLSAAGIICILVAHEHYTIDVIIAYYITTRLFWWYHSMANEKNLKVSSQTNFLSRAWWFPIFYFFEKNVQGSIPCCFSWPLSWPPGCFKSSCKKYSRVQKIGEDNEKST
Method: as §1, §2, §3

Aβ42 aggregation [1] = molecular target: T3, Aβ42 aggregation (Homo sapiens, UniProt P05067); experiment: Aβ aggregation inhibition, microtiter-scale high-throughput screening (MSHTS) assay; assay type: biochemical
T3 construct: 30 nM QD-labeled Aβ40 (QDAβ), and 30 μM Aβ42 in PBS
T3 sequence (P05067 672-713 limits assumed): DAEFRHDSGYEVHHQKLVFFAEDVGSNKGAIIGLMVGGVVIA
Method: Alzheimer’s disease (AD) is a multifactorial disease, which is believed to be caused by complex interactions among several contributing patho-mechanisms. The ability of DCA and its derivatives, along with other natural compounds, ginkgolic acids (8, 9) (Figure 2) and malabaicone A–C (10, 11 and 12), to inhibit Aβ42 aggregation was evaluated by microtiter-scale high-throughput screening (MSHTS) assays. EC50 values were measured from inhibition curves, in which the percent SDs of fluorescence intensities were plotted against the concentration of each compound (Figure 3). Here, 30 nM quantum dot amyloid beta (QDAβ) and 30 µM of Aβ were incubated with different concentrations to evaluate the EC50 of all derivatives. […] The inhibitory activities of the other cyclized DCAs and malabaricones were lower (Figure S2).
The aggregation inhibitory activities of plant extracts, fractions, DCA, DCA derivatives, and naturally occurring SMS inhibitors (compounds 8, 9, and 10) were measured using a modified MSHTS system. Various concentrations of each were incubated with 30 nM QD-labeled Aβ40 (QDAβ), and 30 μM Aβ42 in PBS containing 5% EtOH and 3% DMSO at 37 °C for 24 h in 1536-well plates (782096, Greiner) (Kremsmünster, Austria). The center of each well as viewed with an inverted fluorescence microscope (TE2000, Nikon)) (Tokyo, Japan) equipped with a color CCD camera (DP72, Olympus) (Tokyo, Japan), and the central region of each well were measured with ImageJ software Ver 1.53b (NIH) to determine the standard deviations (SD) of fluorescence intensities of 40,000 pixels (200 × 200 pixels: 320 × 320 μm). The SD values, which were approximately proportional to the amount of aggregates, were plotted against the concentrations of the putative inhibitors to generate inhibition curves, and the EC50 values were determined.
Figure 3 (A) Inhibition of Aβ42 aggregation by DCA, its derivatives, and natural sphingomyelin synthase inhibitors, as shown by incubation of 30 nM QDAβ and 30 µM Aβ with various concentrations of these compounds. (B) Estimation of EC50 values from inhibition curves, in which the percent SDs of fluorescence intensities were plotted against the concentrations of these compounds.

sphingomyelin synthase = experiment: SMS activity, isozyme not specified (abstract value; fractions of Rhododendron dauricum extract); assay type: biochemical; conditions: isozyme not stated, read-out: IC50, inhibition of sphingomyelin synthase activity
Aβ42 aggregation [2] = molecular target: T3, Aβ42 aggregation; parameters: method as in PMID 23991168; conditions: comparison value; read-out: EC50 of Aβ aggregation inhibition (MSHTS); cited from earlier work
[3] = ZS/SMS1 cell lysate, C6-NBD-ceramide, 3 h at 37 °C, HPLC
[4] = ZS/SMS2 cell lysate, C6-NBD-ceramide, 3 h at 37 °C, HPLC
[5] = ZS/SMS1 cell lysate, C6-NBD-ceramide, 3 h at 37 °C, HPLC, read-out: SMS Assay (SMS1) IC50
[6] = ZS/SMS2 cell lysate, C6-NBD-ceramide, 3 h at 37 °C, HPLC, read-out: SMS Assay (SMS2) IC50
[7] = 30 nM QDAβ and 30 µM Aβ42, 37 °C, 24 h, read-out: MHSTS Assay EC50 (inhibition of Aβ42 aggregation)

SMILES: CCCCCC/C=C\CCCCCCCc1cccc(O)c1C(=O)O [Compound 8, ginkgolic acid, reference compound]
- IC50 (SMS1; [5]): 1.5 µM
- IC50 (SMS2; [6]): 1.5 µM
- EC50 (Aβ42 aggregation [1]; [7]): 149 µM

SMILES: CC(C)=CCC/C(C)=C/CC[C@@]1(C)C=Cc2c(cc(C)c(C(=O)O)c2O)O1 [Compound 1, Daurichromenic acid]
- IC50 (SMS1): 7 µM
- IC50 (SMS2): 4 µM
- EC50 (Aβ42 aggregation [1]): 57 µM
- IC50 (sphingomyelin synthase): 4 µM

SMILES: COc1c2c(cc(C)c1C(=O)O)O[C@@](C)(CC/C=C(\C)CCC=C(C)C)C=C2 [Compound 4, (S,E)-2-(4,8-Dimethylnona-3,7-dien-1-yl)-5-methoxy-2,7-dimethyl-2H-chromene-6-carboxylic acid]
- IC50 (SMS1; [5]): 17 µM
- IC50 (SMS2; [6]): 10 µM
- EC50 (Aβ42 aggregation [1]; [7]): 74 µM

SMILES: O=C(/C=C/c1ccc(O)c(O)c1)O[C@H](Cc1ccc(O)c(O)c1)C(=O)O [rosmarinic acid]
- EC50 (Aβ42 aggregation [2]): 60 µM

More lines, now with the values ahead:

- SMS Assay (SMS1) IC50 (SMS1; [3]): inactive
- SMS Assay (SMS2) IC50 (SMS2; [4]): inactive
SMILES: COC(=O)c1c(C)cc2c(c1OC)C=C[C@](C)(CC/C=C(\C)CCC=C(C)C)O2 [Compound 3, Methyl(S,E)-2-(4,8-dimethylnona-3,7-dien-1-yl)-5-methoxy-2,7-dimethyl-2H-chromene-6 carboxylate]

- SMS Assay (SMS1) IC50 (SMS1; [3]): inactive
- SMS Assay (SMS2) IC50 (SMS2; [4]): inactive
SMILES: COC(=O)c1c(C)cc2c(c1O)C=C[C@](C)(CC/C=C(\C)CCC=C(C)C)O2 [Compound 2, Methyl Ester of DCA]

- SMS Assay (SMS1) IC50 (SMS1; [3]): inactive
- SMS Assay (SMS2) IC50 (SMS2; [4]): inactive
SMILES: COC(=O)c1c(C)cc2c(c1O)C=C1[C@]3(C)CCCC(C)(C)[C@H]3CC[C@]1(C)O2 [Compound 5, (−)-(5R,8S,10R)-9,15-Didehydro hongoquercin A methyl ester]

- IC50 (SMS1; [5]): 4 µM
- IC50 (SMS2; [6]): 5 µM
- EC50 (Aβ42 aggregation [1]; [7]): 238 µM
SMILES: Cc1cc2c(c(O)c1C(=O)O)CC1[C@]3(C)CCCC(C)(C)[C@H]3CC[C@]1(C)O2 (single isomer, unassigned; (-)) [Compound 7, (−) Hongoquercin A]

- IC50 (SMS1; [5]): 9 µM
- IC50 (SMS2; [6]): 7 µM
SMILES: Cc1cc2c(c(O)c1C(=O)O)C=C1[C@]3(C)CCCC(C)(C)[C@H]3CC[C@]1(C)O2 [Compound 6, (−)-(5R,8S,10R)-9,15-Didehydro hongoquercin A]

- IC50 (SMS1; [5]): 2 µM
- IC50 (SMS2; [6]): 2 µM
- EC50 (Aβ42 aggregation [1]; [7]): 296 µM
SMILES: CCCCCCCCCCCCCCCc1cccc(O)c1C(=O)O [Compound 9, ginkgolic acid, reference compound]

From paper PMC7571127, “Daurichromenic Acid from the Chinese Traditional Medicinal Plant Rhododendron dauricum Inhibits Sphingomyelin Synthase and Aβ Aggregation” (Molecules, 2020)
